One may read the EC50 as the concentration at which the effect is half-maximal.

For series [1], the system named is boar spermatozoa. The conditions noted are these: ref 4 (alamethicin, trilongin), 5 (acrebol), 6 (enniatin B); cited from earlier work.
In series [2] the test system is boar spermatozoa. As to conditions: ref 4 (alamethicin, trilongin), 5 (acrebol), 6 (enniatin B); cited from earlier work. This is another data set of the same source.
In series [3] the test system is boar spermatozoa. The conditions noted are these: ref 4 (alamethicin, trilongin), 5 (acrebol), 6 (enniatin B), cited from earlier work.
For series [4], the system named is boar spermatozoa. As to conditions: ref 4 (alamethicin), 6 (enniatin B); cited from earlier work.
In series [5] the test system is boar spermatozoa. The conditions noted are these: ref 4 (alamethicin, trilongin), 5 (acrebol), 6 (enniatin B); cited from earlier work. The source holds these as a separate data set.
The test system of series [6] is porcine kidney (PK-15) cells. The conditions noted are these: ref 4 (alamethicin, trilongin), 5 (acrebol), 6 (enniatin B); cited from earlier work.
A short description of series [7]: Mammalian somatic cell toxicity assay calibration (cell line not stated). Format: cell-based. The conditions noted are these: 10 parallel tests, SD ± 3.4, cell line not stated. As for the experimental part: Cytotoxicity against somatic cells was tested with feline fetus lung cells (FFL) cultivated as described by Andersson et al. and murine neuroblastoma cells (MNA) as described by Kulonen et al. as well as porcine kidney tubular epithelial cell line (PK-15), cultured as reported earlier. All somatic cell lines were maintained in an atmosphere of 95% air, 5% CO2 and 95% relative humidity at 37 °C on RPMI 1640 (complete medium) in a cell culture cabinet (Heracell 150i; Thermo Fisher Scientific, Vantaa, Finland). The detached cells were seeded onto 96 well microtiter plates and exposed to the purified OPA, the final concentration of which ranged from 48.8 ng mL^−1 to 25 μg mL^−1 containing 10 levels in methanol. After incubating the plates for one day at 37 °C, inhibition of cell proliferation was inspected in phase contrast microscope. EC100 for inhibition of proliferation was easy to observe as absence of cell monolayer and absence of intact cells in the well. EC0 was also easy to observe as an intact cell monolayer indistinguishable from the control. In microscope the determining of EC50 was more difficult. […] Then, the plates were analyzed by a microtiter plate reader (Fluoroskan Ascent, Thermo Scientific, Vantaa, Finland) at the excitation and emission wavelengths of 544 nm and 590 nm, respectively. […]

The subject of series [8] is boar spermatozoa. The experiment in a line: Sperm motility inhibition assay (progressive and rapid motility). Format: cell-based. The conditions noted are these: 24 h, boar spermatozoa, 24 h exposure at room temperature, read-out: Toxic endpoint EC50, Motility inhibition (24 h). As to the method:
Furthermore, their physiological characters including their motility are influenced mainly by membrane potentials and ion fluxes. Thus, the change of sperm motility is able to sensitively indicate the substances causing mitochondrial membrane depolarization even at sublethal doses, which is undetectable with other cell lines. Motility of the spermatozoa was judged after exposure of 30 min and 24 h at room temperature with minor modification of a previously described method.
The sperm motility inhibition assay was done as reported by Andersson et al.. Commercial boar semen obtained from Figen Oy Finland extended in MR-A (Kubus, S.A., Madrid, Spain) containing 27 × 10^6 spermatozoa·mL^−1 was used. The purified OPA was diluted by serial dilutions in methanol obtaining two ranges of concentrations with 4-4 levels from 2500 μg mL^−1 to 250.0 μg mL^−1 and from 50 μg mL^−1 to 5.0 μg mL^−1, for short and long time exposures, respectively. Twenty μL of each dilution was administered to 2 mL of MR-A-diluted boar semen resulting approximately 100 times dilution of the original stock solutions; 20 μL of methanol was added to spermatozoa in the same way as a blank assay. The samples were incubated for 30 min and 24 h at room temperature for short and long term exposure assays, respectively. After exposure, motility was induced in the sperm cells by incubation in 37 °C for 5 min and shaking to provide the sperm cells with oxygen. […]
The above described subjective motility assay was calibrated with an automatic Hamilton Thorne sperm motility analyzer (HTM-S, ver. 7.2; Hamilton-Thorn Research, Danvers, MA, USA). […] Thus the protocol for assessing sperm tail beating as a measure of motility inhibition gave 99% similarity to measurements of the proportion of rapidly motile spermatozoa done with Hamilton Thorne sperm analyzer (HTM-S, ver. 7.2; Hamilton-Thorn Research, Danvers, MA, USA) Toxicity was expressed as the endpoint concentration of the OPA solution, where the progressive and rapid motility of the sperm cells were <50% of the vehicle exposed sperm cells. […]

In series [9] the test system is boar spermatozoa. The series is described as follows: Cell membrane permeability assay on motile sperm cells (PI staining). The series is classed as cell-based. As to conditions: boar spermatozoa, motile at 37 °C, 2 h; read-out: Toxic endpoint EC50, Permeability to PI on motile cells. As for the experimental part: To test the effect of OPA exposure on sperm cells in physiological conditions (swimming at 37 °C) the plasma membrane disruption on motile sperm cells was measured with the viability PI stain, where the loss of plasma membrane integrity was detected as appearance of red color stained nuclei in the damaged cells. In this assay, sperm cells were exposed to OPA at 37 °C and motility of the exposed sperm cells was induced and maintained for 2 h.
Cell membrane permeability assay on motile sperm cells was inspected by staining with PI (Molecular Probes, Eugene, OR, USA) in sperm cells induced to swim by shaking at 37 °C. One hundred and fifty μL aliquots of commercial extended boar semen with a density of 27 × 10^6 sperms mL^−1 were pipetted into microtiter plate wells and serially diluted methanolic solution of OPA were added in the concentration range of 200 ng mL^−1 to 4 μg mL^−1 including 6 levels and an additional methanol blank, and pre-incubated for 2 h on orbital shaker (Innova 5000 new Brunswick Scientific, Enfield, CT, USA) (160 rpm) at 37 °C. Four parallel measurements were done for each dilution. One ml PI solution (1 mg mL^−1 in Dulbeco’s phosphate buffered saline) was mixed with 3 mL of […] Dulbeco’s phosphate buffered saline. One hundred and fifty μL of this stain mixture was added to 150 μL of exposed boar semen. This suspension was incubated for 15 min at 37 °C in dark and measured using a microplate reader (Fluoroskan Ascent, Thermo Scientific, Vantaa, Finland) at excitation and emission wavelengths of 544 nm and 600 nm, respectively. For observing plasma membrane damage by PI staining frozen-thawed semen was used as a positive control (for mortality of 100%) representing the maximal fluorescence emitted by the cells permeable to PI and Dulbeco’s phosphate buffered saline was applied as background control (blank). Loss of viability in the sample was calculated as described in Alm et al.. The frozen sample represented 100% loss of viability. The assay was calibrated with triclosan (Sigma Chemical Co., St. Louis, MO, USA), in 5 parallel tests, the EC50 was 2 μg mL^−1 (SD ± 0.6). Cell membrane permeability assay on static sperm cells at room temperature was carried out by viability staining with PI and calcein-AM (Molecular Probes, Eugene, OR, USA) according to Hoornstra et al. in same concentration range and levels described above.

Values after ≈ are worked out from the molar mass of the structure shown. A value given as a limit tells only on which side of the number the result lay.

As for `CC(C)[C@H]1C(=O)O[C@H](C(C)C)C(=O)N(C)[C@@H](C(C)C)C(=O)O[C@H](C(C)C)C(=O)N(C)[C@@H](C(C)C)C(=O)O[C@H](C(C)C)C(=O)N1C` [Enniatin B], the “Toxic endpoint EC50, Dissipation of ΔΨm” value in the series with boar spermatozoa [1] is 5 µg/mL. In addition, the “Toxic endpoint EC50, Shivering tail beating induction” value in the series on boar spermatozoa [2] is on record as “None”. Moreover, in the series with boar spermatozoa [3], the “Toxic endpoint EC50, Motility inhibition (30 min)” value is >10 µg/mL and the “Toxic endpoint EC50, Motility inhibition (24 h)” value is 5 µg/mL. Also, the “Toxic endpoint EC50, Permeability to PI on motile cells” value in the series with boar spermatozoa [4] is >20 µg/mL. In addition, the “Toxic endpoint EC50, Permeability to PI on static cells” value (from here on “Toxic endpoint EC50 … on static cells”) in the series with boar spermatozoa [5] was >50 µg/mL. The “Toxic endpoint EC50, Cytotoxicity, PK-15 cells” value in series [6] was 60 µg/mL.
For Acrebol, the “Toxic endpoint EC50, Dissipation of ΔΨm” value with boar spermatozoa [1] is 0.8 µg/mL. Also, the “Toxic endpoint EC50, Shivering tail beating induction” value with boar spermatozoa [2] is listed as “None”. In the series with boar spermatozoa [3], the “Toxic endpoint EC50, Motility inhibition (30 min)” value was 2 µg/mL and the “Toxic endpoint EC50, Motility inhibition (24 h)” value was 0.1 µg/mL. Further, in the series with boar spermatozoa [5], the “Toxic endpoint EC50 … on static cells” value was >4 µg/mL. Further, in [6], the “Toxic endpoint EC50, Cytotoxicity, PK-15 cells” value is ≥10 µg/mL.
Take Alamethicin: the “Toxic endpoint EC50, Dissipation of ΔΨm” value in the series with boar spermatozoa [1] was 0.2 µg/mL. Also, the “Toxic endpoint EC50, Shivering tail beating induction” value in the series on boar spermatozoa [2] was “None”. Besides, in the series with boar spermatozoa [3], the “Toxic endpoint EC50, Motility inhibition (30 min)” value was 1 µg/mL and the “Toxic endpoint EC50, Motility inhibition (24 h)” value was 0.2 µg/mL. The “Toxic endpoint EC50, Permeability to PI on motile cells” value in the series with boar spermatozoa [4] was ≤0.5 µg/mL. In addition, the “Toxic endpoint EC50 … on static cells” value in the series on boar spermatozoa [5] is 0.2 µg/mL. Besides, the “Toxic endpoint EC50, Cytotoxicity, PK-15 cells” value in series [6] was 8 µg/mL.
In turn, `Oc1cc(Cl)ccc1Oc1ccc(Cl)cc1Cl` [triclosan] had a concentration giving a half-maximal response (EC50) at 3 days in [7] of 9.4 µg/mL (≈ 32.5 µM). Moreover, the EC50 in the series on boar spermatozoa [8] amounted to 1 µg/mL (≈ 3.45 µM); in the series on boar spermatozoa [9] it was 2 µg/mL (≈ 6.91 µM).

(Values after article PMC4179164, “Ophiobolin A from Bipolaris oryzae Perturbs Motility and Membrane Integrities of Porcine Sperm and Induces Cell Death on Mammalian Somatic Cell Lines” (Toxins, 2014).)
